One assay addresses T1, hM4 receptors (Homo sapiens, UniProt P08173).
T1 construct: expressed in transfected cells; host or cells: CHO cells
T1 sequence (P08173 1-479): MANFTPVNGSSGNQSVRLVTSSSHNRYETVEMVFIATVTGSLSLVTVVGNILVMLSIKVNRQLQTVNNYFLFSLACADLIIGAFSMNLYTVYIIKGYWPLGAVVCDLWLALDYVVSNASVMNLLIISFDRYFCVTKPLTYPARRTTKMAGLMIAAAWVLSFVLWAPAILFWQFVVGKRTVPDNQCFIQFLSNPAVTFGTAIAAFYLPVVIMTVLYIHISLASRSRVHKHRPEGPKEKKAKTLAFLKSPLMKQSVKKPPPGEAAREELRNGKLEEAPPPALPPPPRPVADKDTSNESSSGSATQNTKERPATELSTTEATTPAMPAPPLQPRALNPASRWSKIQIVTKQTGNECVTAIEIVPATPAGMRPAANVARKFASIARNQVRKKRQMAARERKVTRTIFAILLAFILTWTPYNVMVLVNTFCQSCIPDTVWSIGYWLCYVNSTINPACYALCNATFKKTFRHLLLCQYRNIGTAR
In words: Human M4 PAM PERK assay (CHO cells, TR-FRET, with EC20 acetylcholine). It is filed as cell-based. As to the method:
(§1) Chinese hamster ovary (CHO) cells expressing either hM4 or rM4 receptors were frozen in assay ready vials (5×10^6 cells/vial) after bulking-up in culture. The day before an assay, vial(s) were thawed and cells seeded in 384 well white proxiplates at 1000/well for hM4 cells and at 2000/well for rM4 cells, in 10 μL of growth media (Hams/F12 with glutamax and 10% FCS) and incubated overnight at 37° C./5% CO2.
(§2) On the following morning, the growth media was removed by ‘flicking out’ over a bin, patting the inverted plate onto tissue, and then replacing with 10 μL of wash media (Hams/F12 with glutamax and 8 mM HEPES, NB: serum free). Then, the wash media was removed in the same way and replaced with 8 μL/well of the serum free media. Plates were then re-incubated for a further 4 hours at 37° C./5% CO2.
(§3) Compounds for testing were solubilized to 10 mM in DMSO and compound addition plates, consisting of ten-point concentration response curves (CRC) in duplicate points (10 μM top concentration, ½ log dilution series), were prepared by acoustic dispensing and the compound management group.
(§4) After the 4-hour incubation in serum free media, a 4 μL aliquot of the 3×compound solution containing an EC20 of acetylcholine (10 nM final concentration) was added to the cell plate using a 384 well plate to plate transfer. Then, the plate lid was replaced, and the cells incubated for 5 mins at 37° C./5% CO2. Following this final incubation, all cellular processes were stopped by the addition of 4 μL/well of lysis and blocking buffer and plates were incubated for 30 minutes at RT on an orbital shaker (gentle setting). Then, a final addition of 4 μL/well of antibody detection mix, containing both the Europium-Cryptate (donor) and d2 (acceptor) tagged detection components, was added followed by a further 2-hour incubation at RT, and then the plate was read using a TR-FRET (time resolved fluorescence resonance energy transfer) based protocol.

The target in the next assay is T2, rM4 receptors (Rattus norvegicus, UniProt P08485).
T2 construct: expressed in transfected cells; host or cells: CHO cells
T2 sequence (P08485 1-478): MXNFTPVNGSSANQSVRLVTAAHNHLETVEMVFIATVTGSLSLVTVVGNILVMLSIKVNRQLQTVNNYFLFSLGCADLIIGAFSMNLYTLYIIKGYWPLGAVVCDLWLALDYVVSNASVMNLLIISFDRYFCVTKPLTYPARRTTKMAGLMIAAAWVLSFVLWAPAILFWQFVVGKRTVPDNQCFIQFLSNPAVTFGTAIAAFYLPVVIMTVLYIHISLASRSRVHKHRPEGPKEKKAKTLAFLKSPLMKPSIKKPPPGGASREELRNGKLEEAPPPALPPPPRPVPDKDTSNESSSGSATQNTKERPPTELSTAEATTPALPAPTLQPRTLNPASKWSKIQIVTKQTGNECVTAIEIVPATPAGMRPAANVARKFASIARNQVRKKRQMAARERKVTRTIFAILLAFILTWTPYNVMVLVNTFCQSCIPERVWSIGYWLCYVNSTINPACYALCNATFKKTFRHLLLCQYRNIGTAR
In words: Rat M4 PAM PERK assay (CHO cells, TR-FRET, with EC20 acetylcholine). It is filed as cell-based. As for the experimental part: as §1, §2, §3, §4

The next assay has as its target T3, human M4 receptor (Homo sapiens, UniProt P08173).
T3 construct: expressed in transfected cells; host or cells: CHO-K1 cells (membranes)
T3 sequence (P08173 1-479): T1 sequence (P08173 1-479)
Nature of the assay: M4 GTPγS PAM assay (CHO-K1 membranes, 35S-GTP binding, with EC20 acetylcholine). It is filed as biochemical. The note with it: with EC20 acetylcholine (40 nM). As for the experimental part: The M4 GTPγS PAM method was used. Membranes were prepared for GTPgS binding assays from CHO-K1 cells stably expressing human M4 receptor. Briefly, cells were grown in 5-layer cell culture flasks. Cells were washed with 50 mL of PBS and then dissociated with 0.05% trypsin. Dissociated cells were then collected by centrifugation at 650×g for 8 minutes at 4° C. Pellets were washed again in PBS by centrifugation and resuspended in 30 mL of 20 mM HEPES, 10 mM EDTA, pH 7.4. After sitting on ice for 30 min, membranes were collected by centrifugation at 50000×g for 15′ at 4° C., resuspended in 30 mL of 20 mM HEPES, 0.1 mM EDTA, pH 7.4 and collected again by centrifugation. Pellets were then washed twice by centrifugation in 30 mL of 20 mM HEPES, pH 7.4, and stored at −80° C. until the day of the assay. On the day of the assay, pellets were thawed on ice and resuspended in 1 mL of 20 mM HEPES, pH 7.4, 10 mM MgCl2, 100 mM NaCl using dounce homogenization. Membrane protein concentration is determined by BCA protein assay (Promega, Madison, WI) according to Promega guidelines.
On the day of the assay, serial dilutions of test PAM compounds were brought up in assay buffer (20 mM HEPES, 10 mM MgCl2, 100 mM NaCl) at 4X final assay concentration. […] of membrane homogenates (containing […] of membrane protein) were prepared in assay buffer supplemented with GDP at […] final assay concentration (final assay concentration of GDP is 5 μM for M2 and 0.1 μM for M4) and dispensed into 96 well polypropylene, U-bottom Greiner plates. 25 ml of vehicle or test PAM compound at 4× of final assay concentration diluted in the assay buffer were added to membrane and plates are incubated for 10-15 minutes at room temperature with gentle shaking. Then, […] of EC20 acetylcholine in assay buffer at 4× final assay concentration was added to assay plates (EC20 final assay concentrations was 40 nM for human M4).
Plates were then incubated, with shaking, for an additional 10-15 minutes. […] of 0.4 nM 35S-GTP (Perkin Elmer, Waltham, MA) in assay buffer was added to assay mixtures. The binding reaction is left on the shaker for 1 hour at room temperature. Membranes in assay reactions were then transferred to GF/C filter plates (Unifilter, Perkin Elmer) and washed three times using a FilterMate Harvester (Perkin Elmer) with cold assay buffer containing no GDP. Filter plates were then dried at 40° C. overnight followed by the addition of […] of Beta Plate Scintillation liquid. Plates are top and bottom sealed before being read on TopCount scintillation counter (Perkin Elmer, Waltham, MA).

As to `Cc1c2c(n(C)c(=O)c1C)CN(C(=O)CC1CN(c3ccc(C4CC4)c(F)c3)C1C)C2` (single isomer, unassigned) [Compound I-61], the half-maximal effective concentration (EC50) on hM4 receptors, on rM4 receptors and at human M4 receptor was less than 50 nM throughout.
With `Cc1c2c(n(C)c(=O)c1C)CN(C(=O)CC1CN(c3ccc(C4CC4)c(F)c3)C1C)C2` (single isomer, unassigned) [Compound I-62], the concentration for a half-maximal effect (EC50) at hM4 receptors, on rM4 receptors and at human M4 receptor was 200 to 1000 nM in each case.
Take `Cc1c2c(n(C)c(=O)c1Cl)CN(C(=O)C(C)C1CN(c3ccnc(C(F)(F)F)c3)C1)C2` (single isomer, unassigned) [Compound I-82, 3-Chloro-1,4-dimethyl-6-(2-(1-(2-(trifluoromethyl)pyridin-4-yl)azetidin-3-yl)propanoyl)-1,5,6,7-tetrahydro-2H-pyrrolo[3,4-b]pyridin-2-one]: the concentration giving a half-maximal response (EC50) at hM4 receptors, on rM4 receptors and on human M4 receptor was greater than 1000 nM each time.
On to `Cc1cc(=O)n(C)c2c1CN(C(=O)CC1CN(c3cccnc3)C1)C2` [Compound I-3], for which the results for the EC50 at hM4 receptors, on rM4 receptors and at human M4 receptor were 50 to 200 nM, 200 to 1000 nM and less than 50 nM, respectively.
The matching figures for `COc1cccc(N2CC(CC(=O)N3Cc4c(C)cc(=O)n(C)c4C3)C2)c1` [Compound I-7]: 200 to 1000 nM, 50 to 200 nM and 200 to 1000 nM.
Consider `Cc1cc(=O)n(C)c2c1CN(C(=O)CC1CN(c3ccc(C(F)(F)F)cn3)C1)C2` [Compound I-8], for which the EC50 on hM4 receptors was 200 to 1000 nM; on rM4 receptors, greater than 1000 nM; on human M4 receptor, greater than 1000 nM.
As for `Cc1cc(=O)n(C)c2c1CN(C(=O)CC1CN(c3ccnc(OCC4CC4)c3)C1)C2` [Compound I-10], the EC50 on hM4 receptors is less than 50 nM; on rM4 receptors it was 200 to 1000 nM; on human M4 receptor, 50 to 200 nM.
`Cc1cc(=O)n(C)c2c1CN(C(=O)CC1CN(c3ccc(F)cc3)C1)C2` [Compound I-11]: the EC50 at hM4 receptors, at rM4 receptors and on human M4 receptor was 200 to 1000 nM each time.
Turning to `Cc1cc(=O)n(C)c2c1CN(C(=O)CC1CN(c3ccc(OC(F)(F)F)cc3)C1)C2` [Compound I-12], the concentration giving a half-maximal response (EC50) was in the range of 200 to 1000 nM on hM4 receptors, 200 to 1000 nM on rM4 receptors and 50 to 200 nM on human M4 receptor.
Turning to `Cc1cc(=O)n(C)c2c1CN(C(=O)CC1CN(c3cccc(C(F)(F)F)c3)C1)C2` [Compound I-13], the EC50 lay within 200 to 1000 nM on hM4 receptors, 200 to 1000 nM on rM4 receptors and 50 to 200 nM at human M4 receptor.
As to `Cc1cc(=O)n(C)c2c1CN(C(=O)CC1CN(c3ccc4c(c3)COC4)C1)C2` [Compound I-16], the EC50 on hM4 receptors lay within 50 to 200 nM; at rM4 receptors it was 200 to 1000 nM; on human M4 receptor, 200 to 1000 nM.
Take `Cc1cc(=O)n(C)c2c1CN(C(=O)CC1CN(c3ccc(C#N)cc3)C1)C2` [Compound I-17]: the half-maximal effective concentration (EC50) on hM4 receptors is less than 50 nM; on rM4 receptors it was 50 to 200 nM; at human M4 receptor, 50 to 200 nM.
For `Cc1cc(=O)n(C)c2c1CN(C(=O)CC1CN(c3ncns3)C1)C2` [Compound I-18], the results for the EC50 on hM4 receptors, at rM4 receptors and at human M4 receptor were 200 to 1000 nM, greater than 1000 nM and 200 to 1000 nM, respectively.
On to `Cc1cc(=O)n(C)c2c1CN(C(=O)CC1CN(c3ccc(C4CC4)cc3)C1)C2` [Compound I-19], for which the EC50 at hM4 receptors is 200 to 1000 nM; at rM4 receptors, 50 to 200 nM; at human M4 receptor it was 50 to 200 nM.
Turning to `Cc1cc(=O)n(C)c2c1CN(C(=O)CC1CN(c3ccc(F)c(C(F)(F)F)c3)C1)C2` [Compound I-20], the EC50 is 50 to 200 nM at hM4 receptors, 50 to 200 nM on rM4 receptors and 200 to 1000 nM at human M4 receptor.
Regarding `Cc1cc(=O)n(C)c2c1CN(C(=O)CC1CN(c3cnc(C(F)(F)F)nc3)C1)C2` [Compound I-21], the EC50 was 200 to 1000 nM on hM4 receptors, 50 to 200 nM at rM4 receptors and greater than 1000 nM on human M4 receptor.
The matching figures for `Cc1cc(=O)n(C)c2c1CN(C(=O)CC1CN(c3ccnc(C4CC4)c3)C1)C2` [Compound I-22]: 50 to 200 nM, 200 to 1000 nM and 200 to 1000 nM.
Take `Cc1cc(=O)n(C)c2c1CN(C(=O)CC1CN(c3ccnc(C(F)(F)F)n3)C1)C2` [Compound I-23]: the EC50 on hM4 receptors, at rM4 receptors and on human M4 receptor was 200 to 1000 nM in each case.
For `Cc1cc(=O)n(C)c2c1CN(C(=O)CC1CN(c3ccnc(C4CC4)n3)C1)C2` [Compound I-24], the EC50 was 50 to 200 nM at hM4 receptors, 200 to 1000 nM on rM4 receptors and 50 to 200 nM at human M4 receptor.
Consider `Cc1cc(=O)n(C)c2c1CN(C(=O)CC1CN(c3cccc(C#N)c3)C1)C2` [Compound I-25], for which the EC50 at hM4 receptors was in the range of 50 to 200 nM; on rM4 receptors it was 200 to 1000 nM; on human M4 receptor, 200 to 1000 nM.
Consider `Cc1cc(=O)n(C)c2c1CN(C(=O)CC1CN(c3cnc(C(F)(F)F)cn3)C1)C2` [Compound I-26], for which the half-maximal effective concentration (EC50) on hM4 receptors is 200 to 1000 nM; on rM4 receptors it was 50 to 200 nM; on human M4 receptor it was greater than 1000 nM.
In the case of `Cc1cc(=O)n(C)c2c1CN(C(=O)C(C)(C)C1CN(c3ccnc(C(F)(F)F)c3)C1)C2` [Compound I-41, 1,4-Dimethyl-6-(2-methyl-2-(1-(2-(trifluoromethyl)pyridin-4-yl)azetidin-3-yl)propanoyl)-1,5,6,7-tetrahydro-2H-pyrrolo[3,4-b]pyridin-2-one], the EC50 on hM4 receptors and on human M4 receptor was greater than 1000 nM in each case.
